How the values were obtained:
Test in all cases: NCI-60 single-dose screen
[1] = system: EKVX; type: cell-based, human; conditions: Homo sapiens, 10^–5 M, read-out: GI (%)
Source text: (§1) In the next step, all synthesized compounds were electronically submitted and accepted for testing to the National Cancer Institute (NCI) platform, for the single dose (10^−5 M) screening against a panel of 60 human tumor cell lines, representing leukemia, melanoma, and cancers of the lung, colon, central nervous system, ovary, kidney, prostate, and breast. The results are summarized in Table 2, with the best values highlighted in red (Figures S1–S14).

[2] = system: NCI-H226; type: cell-based, human; conditions: Homo sapiens; NCI-H226, 10^–5 M; read-out: GI (%)
Source text: as §1

[3] = system: 786-0; type: cell-based; conditions: Homo sapiens; 786-0, 10^–5 M; read-out: GI (%)
Source text: as §1

[4] = system: A498; type: cell-based; conditions: Homo sapiens; A498, 10^–5 M; read-out: GI (%)
Source text: as §1

[5] = system: A549/ATCC; type: cell-based; conditions: Homo sapiens, 10^–5 M, read-out: GI (%)
Source text: as §1

[6] = system: CAKI-1; type: cell-based; conditions: Homo sapiens; CAKI-1, 10^–5 M; read-out: GI (%)
Source text: as §1

[7] = system: CCRF-CEM; type: cell-based; conditions: Homo sapiens, 10^–5 M, read-out: GI (%)
Source text: as §1

[8] = system: DU-145; type: cell-based; conditions: Homo sapiens; DU-145, 10^–5 M; read-out: GI (%)
Source text: as §1

[9] = system: HCC-2998; type: cell-based; conditions: Homo sapiens; HCC-2998, 10^–5 M; read-out: GI (%)
Source text: as §1

[10] = system: HCT-116; type: cell-based; conditions: Homo sapiens; HCT-116, 10^–5 M; read-out: GI (%)
Source text: as §1

[11] = system: HCT-15; type: cell-based; conditions: Homo sapiens; HCT-15, 10^–5 M; read-out: GI (%)
Source text: as §1

[12] = system: HL-60(TB); type: cell-based; conditions: Homo sapiens, 10^–5 M, read-out: GI (%)
Source text: as §1

[13] = system: HS 578T; type: cell-based; conditions: Homo sapiens, 10^–5 M, read-out: GI (%)
Source text: as §1

[14] = system: IGROV1; type: cell-based; conditions: Homo sapiens, IGROV-1; IGROV1, 10^–5 M; read-out: GI (%)
Source text: as §1

[15] = system: K-562; type: cell-based; conditions: Homo sapiens, K562; K-562, 10^–5 M; read-out: GI (%)
Source text: as §1

[16] = system: LOX IMVI; type: cell-based; conditions: Homo sapiens, 10^–5 M, read-out: GI (%)
Source text: as §1

[17] = system: M14; type: cell-based; conditions: Homo sapiens; M14, 10^–5 M; read-out: GI (%)
Source text: as §1

[18] = system: MCF7; type: cell-based; conditions: Homo sapiens; MCF7, 10^–5 M; read-out: GI (%)
Source text: as §1

[19] = system: MDA-MB-231/ATCC; type: cell-based; conditions: Homo sapiens, 10^–5 M, read-out: GI (%)
Source text: as §1

[20] = system: MDA-MB-435; type: cell-based; conditions: Homo sapiens; MDA-MB-435, 10^–5 M; read-out: GI (%)
Source text: as §1

[21] = system: MOLT-4; type: cell-based; conditions: Homo sapiens; MOLT-4, 10^–5 M; read-out: GI (%)
Source text: as §1

[22] = system: NCI-H23; type: cell-based; conditions: Homo sapiens; NCI-H23, 10^–5 M; read-out: GI (%)
Source text: as §1

[23] = system: NCI-H322M; type: cell-based; conditions: Homo sapiens, 10^–5 M, read-out: GI (%)
Source text: as §1

[24] = system: NCI-H522; type: cell-based; conditions: Homo sapiens; NCI-H522, 10^–5 M; read-out: GI (%)
Source text: as §1

[25] = system: OVCAR-4; type: cell-based; conditions: Homo sapiens; OVCAR-4, 10^–5 M; read-out: GI (%)
Source text: as §1

[26] = system: OVCAR-5; type: cell-based; conditions: Homo sapiens; OVCAR-5, 10^–5 M; read-out: GI (%)
Source text: as §1

[27] = system: RPMI-8226; type: cell-based; conditions: Homo sapiens; RPMI-8226, 10^–5 M; read-out: GI (%)
Source text: as §1

[28] = system: SF-539; type: cell-based; conditions: Homo sapiens; SF-539, 10^–5 M; read-out: GI (%)
Source text: as §1

[29] = system: SK-MEL-28; type: cell-based; conditions: Homo sapiens; SK-MEL-28, 10^–5 M; read-out: GI (%)
Source text: as §1

[30] = system: SK-MEL-2; type: cell-based; conditions: Homo sapiens; SK-MEL-2, 10^–5 M; read-out: GI (%)
Source text: as §1

[31] = system: SK-OV-3; type: cell-based; conditions: Homo sapiens; SK-OV-3, 10^–5 M; read-out: GI (%)
Source text: as §1

[32] = system: SN12C; type: cell-based; conditions: Homo sapiens, 10^–5 M, read-out: GI (%)
Source text: as §1

[33] = system: SNB-19; type: cell-based; conditions: Homo sapiens; SNB-19, 10^–5 M; read-out: GI (%)
Source text: as §1

[34] = system: SNB-75; type: cell-based; conditions: Homo sapiens; SNB-75, 10^–5 M; read-out: GI (%)
Source text: as §1

[35] = system: SW-620; type: cell-based; conditions: Homo sapiens; SW-620, 10^–5 M; read-out: GI (%)
Source text: as §1

[36] = system: T-47D; type: cell-based; conditions: Homo sapiens, T47D, 10^–5 M, read-out: GI (%)
Source text: as §1

[37] = system: UACC-257; type: cell-based; conditions: Homo sapiens; UACC-257, 10^–5 M; read-out: GI (%)
Source text: as §1

[38] = system: UACC-62; type: cell-based; conditions: Homo sapiens; UACC-62, 10^–5 M; read-out: GI (%)
Source text: as §1

Compound | inhibition at 10 µM [1] [%] | inhibition at 10 µM [2] [%] | inhibition at 10 µM [4] [%] | inhibition at 10 µM [5] [%] | inhibition at 10 µM [6] [%] | inhibition at 10 µM [7] [%] | inhibition at 10 µM [8] [%] | inhibition at 10 µM [9] [%] | inhibition at 10 µM [10] [%] | inhibition at 10 µM [11] [%] | inhibition at 10 µM [12] [%] | inhibition at 10 µM [13] [%] | inhibition at 10 µM [14] [%] | inhibition at 10 µM [15] [%] | inhibition at 10 µM [16] [%] | inhibition at 10 µM [17] [%] | inhibition at 10 µM [18] [%] | inhibition at 10 µM [19] [%] | inhibition at 10 µM [20] [%] | inhibition at 10 µM [21] [%] | further results
O=C1C(Nc2ccc(I)cc2)=CC(c2ccc(Br)cc2)N1c1ccc(I)cc1 (stereo not shown) [3d] | 36 | 17 | 5 | 0 | 12 | 17 | 0 | 0 | 19 | 13 | 0 | 41 | 16 | 15 | 1 | 0 | 60 | 0 | 0 | 20 | inhibition at 10 µM [3]: 6%; inhibition at 10 µM [22]: 3%; inhibition at 10 µM [23]: 0%; inhibition at 10 µM [24]: 2%; inhibition at 10 µM [25]: 30%; inhibition at 10 µM [26]: 0%; inhibition at 10 µM [27]: 34%; inhibition at 10 µM [28]: 0%; inhibition at 10 µM [29]: 12%; inhibition at 10 µM [30]: 16%; inhibition at 10 µM [31]: 0%; inhibition at 10 µM [32]: 15%; inhibition at 10 µM [33]: 6%; inhibition at 10 µM [34]: 3%; inhibition at 10 µM [35]: 16%; inhibition at 10 µM [36]: 49%; inhibition at 10 µM [37]: 3%; inhibition at 10 µM [38]: 0%
COc1ccccc1C1C=C(Nc2ccc(I)cc2)C(=O)N1c1ccc(I)cc1 (stereo not shown) [3i] | 49 | 36 | 6 | 6 | 28 | 0 | 13 | 21 | 3 | 13 | 0 | 84 | 57 | 9 | 2 | 10 | 50 | 25 | 0 | 17 | inhibition at 10 µM [22]: 30%; inhibition at 10 µM [23]: 0%; inhibition at 10 µM [24]: 37%; inhibition at 10 µM [25]: 60%; inhibition at 10 µM [26]: 0%; inhibition at 10 µM [27]: 32%; inhibition at 10 µM [28]: 31%; inhibition at 10 µM [29]: 12%; inhibition at 10 µM [30]: 44%; inhibition at 10 µM [31]: 19%; inhibition at 10 µM [32]: 20%; inhibition at 10 µM [33]: 0%; inhibition at 10 µM [34]: 37%; inhibition at 10 µM [35]: 14%; inhibition at 10 µM [36]: 39%; inhibition at 10 µM [37]: 13%; inhibition at 10 µM [38]: 21%
O=C1C(Nc2ccc(I)cc2)=CC(c2ccc(O)cc2)N1c1ccc(I)cc1 (stereo not shown) [3g] | 64 | 47 | 48 | 22 | 41 | 94 | 58 | 53 | 61 | 84 | 75 | 100 | 27 | 78 | 44 | 52 | 83 | 44 | 38 | 100 | inhibition at 10 µM [22]: 45%; inhibition at 10 µM [23]: 20%; inhibition at 10 µM [24]: 70%; inhibition at 10 µM [25]: 85%; inhibition at 10 µM [26]: 24%; inhibition at 10 µM [27]: 100%; inhibition at 10 µM [28]: 69%; inhibition at 10 µM [29]: 42%; inhibition at 10 µM [30]: 56%; inhibition at 10 µM [31]: 25%; inhibition at 10 µM [32]: 60%; inhibition at 10 µM [33]: 17%; inhibition at 10 µM [34]: 77%; inhibition at 10 µM [35]: 56%; inhibition at 10 µM [36]: 80%; inhibition at 10 µM [37]: 42%; inhibition at 10 µM [38]: 33%

Source: article PMC12736255, “Reinvestigating Pyrrol-2-One-Based Compounds: From Antimicrobial Agents to Promising Antitumor Candidates” (Pharmaceuticals, 2025)
